# Activity calls are given as the source filed them. The calls are words filed in the database; no cut-off is given here.
# Assays:
# HUVEC [1] = test: Cytotoxicity against TNFalpha-stimulated HUVEC at 10 uM after 6 hrs by MTT assay; type: cell-based; conditions: human
# HUVEC [2] = test: Induction of VCAM1 expression in HUVEC after 1 hr by ELISA; type: cell-based; conditions: human
# HUVEC [3] = test: Induction of ICAM1 expression in HUVEC after 1 hr by flow cytometry analysis; type: cell-based; conditions: human
# HUVEC [4] = test: Induction of E-selectin expression in HUVEC after 1 hr by flow cytometry analysis; type: cell-based; conditions: human
# HUVEC [5] = test: Antiinflammatory activity in HUVEC assessed as inhibition of TNFalpha-induced VCAM1 expression at 10 uM after 1 hr by flow cytometry analysis; type: functional; conditions: Homo sapiens
# HUVEC [6] = test: Antiinflammatory activity in HUVEC assessed as inhibition of TNFalpha-induced ICAM1 expression at 10 uM after 1 hr by flow cytometry analysis; type: functional; conditions: Homo sapiens
# HUVEC [7] = test: Antiinflammatory activity in HUVEC assessed as inhibition of TNFalpha-induced VCAM1 expression after 1 hr by flow cytometry analysis; type: functional, cell-based; conditions: Homo sapiens
# HUVEC [8] = test: Antiinflammatory activity in HUVEC assessed as inhibition of TNFalpha-induced E-selectin expression at 10 uM after 1 hr by flow cytometry analysis; type: functional, cell-based; conditions: Homo sapiens
# HUVEC [9] = test: Antiinflammatory activity in HUVEC assessed as inhibition of HLA-E expression at 10 uM after 1 hr by flow cytometry analysis; type: functional, cell-based; conditions: Homo sapiens
# HUVEC [10] = test: Antiinflammatory activity in HUVEC assessed as inhibition of MICA expression at 10 uM after 1 hr by flow cytometry analysis; type: functional, cell-based; conditions: Homo sapiens
# HUVEC [11] = test: Antiinflammatory activity in HUVEC assessed as inhibition of HLA-I expression at 10 uM after 1 hr by flow cytometry analysis; type: functional, cell-based; conditions: Homo sapiens
# HUVEC [12] = test: Antiinflammatory activity in HUVEC assessed as inhibition of IFNgamma-induced HLA-E expression at 10 uM after 1 hr by flow cytometry analysis; type: functional; conditions: Homo sapiens
# HUVEC [13] = test: Antiinflammatory activity in HUVEC assessed as inhibition of IFNgamma-induced HLA-II expression at 10 uM after 1 hr by flow cytometry analysis; type: functional; conditions: Homo sapiens
# [14] = Inhibition of vesperlysine-type advanced glycation end products formation using bovine serum albumin after 24 hrs by microtiter plate assay; type: functional
# [15] = Inhibition of pentosidine-type advanced glycation end products formation using bovine serum albumin after 24 hrs by microtiter plate assay; type: functional
SMILES,Activity (HUVEC [1]),Activity (HUVEC [2]),Activity (HUVEC [3]),Activity (HUVEC [4]),inhibition at 10 µM (HUVEC [5]) [%],inhibition at 10 µM (HUVEC [6]) [%],IC50 (HUVEC [7]) [µM],inhibition (HUVEC [8]),inhibition (HUVEC [9]),inhibition (HUVEC [10]),inhibition (HUVEC [11]),inhibition at 10 µM (HUVEC [12]) [%],inhibition at 10 µM (HUVEC [13]) [%],IC50 [14] [µg/mL],IC50 [15] [µg/mL]
CC(C)=CCC1(CC=C(C)C)C(=O)c2c(-c3ccccc3)cc(=O)oc2C(C(=O)C(C)C)=C1O,Non-toxic,Non-toxic,Non-toxic,Non-toxic,≤ 52,≤ 23,10.2,inactive,Active,Active,inactive,≤ 95,≤ 95,,
N=C(N)NN [PIMAGEDINE],,,,,,,,,,,,,,700,150
